Data reported in US10689306B2, “Fertilizer composition and methods of making and using same” (SABIC GLOBAL TECHNOLOGIES B.V., priority 2015, dated 2020).

Tests used:
[1] = hot climatic region; cited from earlier work
[2] = Thermal stability of NBTPT at urea melt temperature by HPLC; format: physicochemical; settings: 133-135° C., over time
Description: The percentage of intact NBTPT in the sample is shown in each chromatogram.
Certain fertilizer additives can be unstable and decompose at elevated temperatures. In a conventional manufacturing process, a fertilizer additive is directly exposed to the temperature of a urea melt, which is typically 133-135° C., during the granulation process. […] Accordingly, at least a portion of NBTPT is lost by using conventional methods.
The fertilizers and methods disclosed herein protect the fertilizer additive from being directly exposed to the temperature of a urea melt during the manufacturing process. The fertilizer core particle of the fertilizer comprises a binder, which protects the fertilizer additive from being directly exposed to the urea melt and the temperature of the urea melt. As such, the fertilizer additive is protected from the elevated temperature and is less likely to decompose. […] Thus, the fertilizers and methods disclosed herein prevent loss of a fertilizer additive, such as, for example, without limitation, an inhibitor, for example NBTPT, during the manufacturing process.
The thermal stability of neat NBTPT and NBTPT contained within a core, as disclosed herein, can be determined by HPLC. […] (133-135° C. is the typical temperature range of a urea melt) and can continuously be analyzed by HPLC every 5 min, until data for 30 min was collected. […]

[3] = cited from earlier work
[4] = Nitrogen loss after 17 days of exposure to Upland Crowley Soil (IFDC)
Description: The nitrogen volatilization was measured in different soils for several samples and compared to products on the market, such as Agrotain®, ESN®, and SuperU®. The samples were tested in Greenville soil, Crowley soil, and Brownfield Soil.
Crowley soil consists of very deep, somewhat poorly drained, very slowly permeable soils that formed in clayey fluviomarine deposits of the Pleistocene age. The soil exist in nearly level to very gently sloping soils and occur on flat coastal plains terraces. The slope is dominantly less than 1 percent but ranges to up to 3 percent. The mean annual precipitation is about 1549 mm (61 in), and the mean annual air temperature is about 20 degrees c. (68 degrees F.), where the soil is found. The soil is fine, smectitic, and thermic Typic Albaqualfs.

In the case of N#CN=C(N)N [DCD, dicyandiamide], the “thermal stability in the soil” value [1] is listed as “thermal instability”.
For CCCCNP(N)(N)=S [NBTPT, N-(n-butyl) thiophosphoric triamide], the “thermal stability of neat NBTPT” value ([2]; neat, FIG. 13) is listed as “decomposes”, the “thermal stability of NBTPT within a fertilizer core particle” value ([2]; within a core, FIG. 14) is listed as “stable over time and does not decompose” and the “stability under acidic pH” value [3] is listed as “unstable”.
In the case of NC(N)=O [Urea, urea], the “Cumulative Nitrogen Loss (mg) by 17 Days” value ([4]; 17 days of exposure to Upland Crowley Soil) is reported as 299.08 mg, the “% Urea” value ([4]; nitrogen loss relative to urea (100), 17 days, Upland Crowley Soil) is reported as 100% and the “% Reduction in Nitrogen Loss” value ([4]; versus urea, 17 days, Upland Crowley Soil) is reported as 0%.
